# Experimental data from patent publication US11548855B2, “Pyrazole amide compound and application thereof, and fungicide” (Shandong United Pesticide Industry Co. Ltd., priority 2017, dated 2023).
# Read-outs that look alike come from different tables or passages of the source.
# What was measured:
# Format in all cases: in vivo
# [1] = tested on: corn rust (Puccinia sorghi); assay: Greenhouse pot test, corn rust; settings: Puccinia sorghi, 168 h, read-out: Control effect (%) Corn rust; for pest or weed control at 6.25 µg/mL: 6.25 mg/L; for pest or weed control at 25 µg/mL: 25 mg/L; for pest or weed control at 100 µg/mL: 100 mg/L; for pest or weed control at 1.5625 µg/mL: 1.5625 mg/L; for pest or weed control at 3.125 µg/mL: 3.1250 mg/L
# Protocol: (§1) Test method: each of the test compounds in Table 1 was dispensed to 5 wt % emulsifiable concentrate (hereinafter referred to as 5% EC). The greenhouse pot test was used in each experiment, and the effective concentrations of each compound were illustrated in Table 1.
# Corn rust: two-three leaf stage potted corn seedling with uniform growth was selected and made foliar spray treatment with 5% EC, the blank control sprayed with clean water was additionally arranged, three replicates were carried out. After 24 h, the leaves of the host plants were inoculated with sporangial suspensions of the fungi corn rust (Puccinia sorghi), the plants were stored in humidity chamber (temperature: lighting 25° C., dark 20° C., relative humidity 95-100%) and then transferred to greenhouse (25±1° C.) 24 h after infection. After 7 days, the screening results were investigated according to the disease incidence condition of blank control.
# (§2) The investigation method: “Guidelines for the field efficacy trials of pesticides” was adopted as the grading standard, and the control effect in a unit of % was calculated based on the disease index. Disease index=Σ(number of diseased leaves at each grade×relative grade value)×100/(total number of leaves×9); Control effect (%)=(disease index of control−disease index of treated)×100/disease index of control;
# (§3) The compounds provided by the present disclosure and some control compounds were tested by the same methods in the Test example 1, except that the effective concentrations of the compounds in this Test example are shown in Table 2.
# cucumber powdery mildew = assay: Greenhouse pot test, cucumber powdery mildew; settings: for pest or weed control at 6.25 µg/mL / pest or weed control at 25 µg/mL / pest or weed control at 100 µg/mL: Cucumis sativus, 192 h, read-out: Control effect (%) Cucumber powdery mildew
# Protocol: as §1
# Cucumber powdery mildew: cucumber seedling in a true leaf period with uniform growth was selected, and dried in the shade for 24 h after spray treatment. Fresh cucumber powdery mildew spores on the cucumber leaves were collected and washed, and filtered through a double gauze to prepare a spores suspension with concentration of about 100,000/mL, then spray inoculation was applied. The test materials inoculated were moved into a greenhouse (lighting 21-23° C.), after 8 days, the grading investigation was carried out according to the disease incidence condition of blank control, and the control effect in a unit of % was calculated according to disease index.
# as §2, §3
# [2] = tested on: soybean rust (Phakopsora pacchyrhizi Sydow); assay: Greenhouse pot test, soybean rust; settings: Glycine max, 168 h, read-out: Control effect (%) Soybean rust; for pest or weed control at 6.25 µg/mL: 6.25 mg/L; for pest or weed control at 25 µg/mL: 25 mg/L; for pest or weed control at 100 µg/mL: 100 mg/L; for pest or weed control at 1.5625 µg/mL: 1.5625 mg/L; for pest or weed control at 3.125 µg/mL: 3.1250 mg/L
# Protocol: as §1
# Soybean rust: two-leaf stage potted soybean seedling with uniform growth was selected and made foliar spray treatment with 5% EC, the blank control sprayed with clean water was additionally arranged, three replicates were carried out. After 24 h, the leaves of the host plants were inoculated with sporangial suspensions of the fungi soybean rust (Phakopsora pacchyrhizi Sydow), the plants were stored in humidity chamber (temperature 20-25° C., relative humidity>95%) and then transferred to greenhouse (25±1° C.) 8-16 h after infection. After 7 days, the screening results were investigated according to the disease incidence condition of blank control.
# as §2, §3
# [3] = tested on: wheat powdery mildew (Erysiphe graminis); assay: Greenhouse pot test, wheat powdery mildew; settings: Blumeria graminis, 168 h, read-out: Control effect (%) Wheat powdery mildew; for pest or weed control at 6.25 µg/mL: 6.25 mg/L; for pest or weed control at 25 µg/mL: 25 mg/L; for pest or weed control at 100 µg/mL: 100 mg/L; for pest or weed control at 1.5625 µg/mL: 1.5625 mg/L; for pest or weed control at 3.125 µg/mL: 3.1250 mg/L
# Description: as §1
# Wheat powdery mildew: two-leaf stage potted wheat seedling with uniform growth was selected and made foliar spray treatment with 5% EC, the blank control sprayed with clean water was additionally arranged, three replicates were carried out. After 24 h, the leaves of the host plants were inoculated by shake-down method with sporangial suspensions of the fungi wheat powdery mildew (Erysiphe graminis), the plants were stored in a greenhouse (25±1° C.). After 7 days, the screening results were investigated according to the disease incidence condition of blank control.
# as §2, §3
compound,measurement,setting,value
Cn1nc(C(F)F)c(C(=O)Nc2ccccc2Oc2ccc(C(F)(F)F)cc2Br)c1F [Compound 2],pest or weed control at 6.25 µg/mL,[1],98%
same,pest or weed control at 25 µg/mL,[1],100%
same,pest or weed control at 100 µg/mL,[1],100%
same,pest or weed control at 6.25 µg/mL,"cucumber powdery mildew; greenhouse pot, 6.25 mg/L",45%
same,pest or weed control at 25 µg/mL,"cucumber powdery mildew; greenhouse pot, 25 mg/L",55%
same,pest or weed control at 100 µg/mL,"cucumber powdery mildew; greenhouse pot, 100 mg/L",88%
same,pest or weed control at 6.25 µg/mL,[2],96%
same,pest or weed control at 25 µg/mL,[2],100%
same,pest or weed control at 100 µg/mL,[2],100%
same,pest or weed control at 6.25 µg/mL,[3],70%
same,pest or weed control at 25 µg/mL,[3],75%
same,pest or weed control at 100 µg/mL,[3],85%
Cn1nc(C(F)F)c(C(=O)Nc2ccccc2Oc2ccc(C(F)(F)F)cc2I)c1F [Compound 3],pest or weed control at 6.25 µg/mL,[1],75%
same,pest or weed control at 25 µg/mL,[1],100%
same,pest or weed control at 100 µg/mL,[1],100%
same,pest or weed control at 6.25 µg/mL,"cucumber powdery mildew; greenhouse pot, 6.25 mg/L",45%
same,pest or weed control at 25 µg/mL,"cucumber powdery mildew; greenhouse pot, 25 mg/L",70%
same,pest or weed control at 100 µg/mL,"cucumber powdery mildew; greenhouse pot, 100 mg/L",95%
same,pest or weed control at 6.25 µg/mL,[2],85%
same,pest or weed control at 25 µg/mL,[2],100%
same,pest or weed control at 100 µg/mL,[2],100%
same,pest or weed control at 6.25 µg/mL,[3],65%
same,pest or weed control at 25 µg/mL,[3],80%
same,pest or weed control at 100 µg/mL,[3],80%
Cn1cc(C(=O)Nc2ccccc2Oc2cc(C(F)(F)F)ccc2C(F)(F)F)c(C(F)F)n1 [Compound 5],pest or weed control at 6.25 µg/mL,[1],70%
same,pest or weed control at 25 µg/mL,[1],75%
same,pest or weed control at 100 µg/mL,[1],85%
same,pest or weed control at 6.25 µg/mL,[2],95%
same,pest or weed control at 25 µg/mL,[2],98%
same,pest or weed control at 100 µg/mL,[2],100%
same,pest or weed control at 6.25 µg/mL,[3],10%
same,pest or weed control at 25 µg/mL,[3],40%
same,pest or weed control at 100 µg/mL,[3],50%
Cn1nc(C(F)F)c(C(=O)Nc2ccccc2Oc2ccc(C(F)(F)F)cc2C(F)(F)F)c1F [Compound 6],pest or weed control at 6.25 µg/mL,[1],98%
same,pest or weed control at 25 µg/mL,[1],100%
same,pest or weed control at 100 µg/mL,[1],100%
same,pest or weed control at 6.25 µg/mL,"cucumber powdery mildew; greenhouse pot, 6.25 mg/L",50%
same,pest or weed control at 25 µg/mL,"cucumber powdery mildew; greenhouse pot, 25 mg/L",75%
same,pest or weed control at 100 µg/mL,"cucumber powdery mildew; greenhouse pot, 100 mg/L",98%
same,pest or weed control at 6.25 µg/mL,[2],90%
same,pest or weed control at 25 µg/mL,[2],100%
same,pest or weed control at 100 µg/mL,[2],100%
same,pest or weed control at 6.25 µg/mL,[3],85%
same,pest or weed control at 25 µg/mL,[3],90%
same,pest or weed control at 100 µg/mL,[3],92%
Cn1cc(C(=O)Nc2ccccc2Oc2ccc(Cl)cc2Cl)c(C(F)F)n1 [Compound 7],pest or weed control at 1.5625 µg/mL,[1],50%
same,pest or weed control at 3.125 µg/mL,[1],60%
same,pest or weed control at 6.25 µg/mL,[1],90%
same,pest or weed control at 25 µg/mL,[1],95%
same,pest or weed control at 100 µg/mL,[1],100%
same,pest or weed control at 6.25 µg/mL,"cucumber powdery mildew; greenhouse pot, 6.25 mg/L",30%
same,pest or weed control at 25 µg/mL,"cucumber powdery mildew; greenhouse pot, 25 mg/L",60%
same,pest or weed control at 100 µg/mL,"cucumber powdery mildew; greenhouse pot, 100 mg/L",89%
same,pest or weed control at 1.5625 µg/mL,[2],90%
same,pest or weed control at 3.125 µg/mL,[2],100%
same,pest or weed control at 6.25 µg/mL,[2],96%
same,pest or weed control at 25 µg/mL,[2],98%
same,pest or weed control at 100 µg/mL,[2],100%
same,pest or weed control at 1.5625 µg/mL,[3],0%
same,pest or weed control at 3.125 µg/mL,[3],50%
same,pest or weed control at 6.25 µg/mL,[3],60%
same,pest or weed control at 25 µg/mL,[3],75%
same,pest or weed control at 100 µg/mL,[3],90%
Cn1cc(C(=O)Nc2ccccc2Oc2ccc(C(F)(F)F)cc2Cl)c(C(F)F)n1 [Compound 8],pest or weed control at 1.5625 µg/mL,[1],85%
same,pest or weed control at 3.125 µg/mL,[1],98%
same,pest or weed control at 6.25 µg/mL,[1],95%
same,pest or weed control at 25 µg/mL,[1],99%
same,pest or weed control at 100 µg/mL,[1],100%
same,pest or weed control at 6.25 µg/mL,"cucumber powdery mildew; greenhouse pot, 6.25 mg/L",40%
same,pest or weed control at 25 µg/mL,"cucumber powdery mildew; greenhouse pot, 25 mg/L",60%
same,pest or weed control at 100 µg/mL,"cucumber powdery mildew; greenhouse pot, 100 mg/L",95%
same,pest or weed control at 1.5625 µg/mL,[2],98%
same,pest or weed control at 3.125 µg/mL,[2],100%
same,pest or weed control at 6.25 µg/mL,[2],99%
same,pest or weed control at 25 µg/mL,[2],100%
same,pest or weed control at 100 µg/mL,[2],100%
same,pest or weed control at 1.5625 µg/mL,[3],70%
same,pest or weed control at 3.125 µg/mL,[3],90%
same,pest or weed control at 6.25 µg/mL,[3],65%
same,pest or weed control at 25 µg/mL,[3],75%
same,pest or weed control at 100 µg/mL,[3],94%
CC1COC(Cn2cncn2)(c2ccc(Oc3ccc(Cl)cc3)cc2Cl)O1 (stereo not drawn) [Difenoconazole],pest or weed control at 100 µg/mL,"cucumber powdery mildew; greenhouse pot, 100 mg/L",80%
CCCCc1c(C)nc(NCC)[nH]c1=O [Ethirimol],pest or weed control at 100 µg/mL,cucumber powdery mildew,100%
Cn1cc(C(=O)Nc2ccccc2-c2cc(F)c(F)c(F)c2)c(C(F)F)n1 [Fluxapyroxad],Control effect (%) Cucumber powdery mildew,"cucumber powdery mildew; greenhouse pot, 1.5625 mg/L",55%
same,Control effect (%) Cucumber powdery mildew,"cucumber powdery mildew; greenhouse pot, 6.25 mg/L",95%
same,Control effect (%) Cucumber powdery mildew,"cucumber powdery mildew; greenhouse pot, 25 mg/L",100%
same,Control effect (%) Cucumber powdery mildew,"cucumber powdery mildew; greenhouse pot, 100 mg/L",100%
